{
  "source": "patent US20160113932A1",
  "about": "“TREATMENT OF CANCERS USING PI3 KINASE ISOFORM MODULATORS” (INFINITY PHARMACEUTICALS, INC., priority 2013, published 2016)",
  "key": {"MJ": {"test_system": "MJ", "assay": "CTCL cytotoxicity, 72 hours", "type": "cell-based", "settings": "MJ cells", "protocol": "MJ and HuT78 cells were grown in IMDM 20% FBS, and HH cells were grown in RPMI 10% FBS."}, "PI3K β": {"target": "T1, PI3K β (Homo sapiens, UniProt P42338)", "T1 construct": "purchased Upstate", "T1 sequence (P42338 whole entry)": "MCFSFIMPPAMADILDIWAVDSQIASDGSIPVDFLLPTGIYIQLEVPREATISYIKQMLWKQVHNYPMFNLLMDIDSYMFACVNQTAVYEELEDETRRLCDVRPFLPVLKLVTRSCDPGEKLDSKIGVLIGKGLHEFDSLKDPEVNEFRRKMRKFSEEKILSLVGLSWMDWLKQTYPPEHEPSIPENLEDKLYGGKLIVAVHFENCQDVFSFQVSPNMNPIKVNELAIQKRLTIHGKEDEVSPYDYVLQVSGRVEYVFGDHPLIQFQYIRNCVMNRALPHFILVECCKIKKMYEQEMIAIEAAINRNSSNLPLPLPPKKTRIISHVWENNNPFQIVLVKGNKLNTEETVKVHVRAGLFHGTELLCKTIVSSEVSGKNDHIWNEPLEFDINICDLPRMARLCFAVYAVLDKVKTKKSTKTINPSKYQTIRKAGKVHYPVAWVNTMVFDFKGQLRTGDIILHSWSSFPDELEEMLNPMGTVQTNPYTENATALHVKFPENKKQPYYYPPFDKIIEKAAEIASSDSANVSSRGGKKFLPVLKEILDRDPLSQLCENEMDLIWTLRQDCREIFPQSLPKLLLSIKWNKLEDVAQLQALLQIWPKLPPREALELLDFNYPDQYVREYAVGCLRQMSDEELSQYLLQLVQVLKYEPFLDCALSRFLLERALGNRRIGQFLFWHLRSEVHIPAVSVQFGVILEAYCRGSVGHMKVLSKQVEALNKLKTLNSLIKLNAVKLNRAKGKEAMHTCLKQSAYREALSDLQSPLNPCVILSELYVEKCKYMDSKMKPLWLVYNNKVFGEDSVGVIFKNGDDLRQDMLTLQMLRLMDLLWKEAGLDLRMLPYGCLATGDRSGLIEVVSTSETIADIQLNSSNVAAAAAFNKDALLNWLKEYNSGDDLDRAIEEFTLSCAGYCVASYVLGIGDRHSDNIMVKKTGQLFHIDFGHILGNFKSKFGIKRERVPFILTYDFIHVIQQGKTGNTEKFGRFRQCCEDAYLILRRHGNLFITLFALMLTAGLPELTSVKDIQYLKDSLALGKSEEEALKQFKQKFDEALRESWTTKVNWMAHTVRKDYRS", "T1 sequence (P27986 whole entry partner)": "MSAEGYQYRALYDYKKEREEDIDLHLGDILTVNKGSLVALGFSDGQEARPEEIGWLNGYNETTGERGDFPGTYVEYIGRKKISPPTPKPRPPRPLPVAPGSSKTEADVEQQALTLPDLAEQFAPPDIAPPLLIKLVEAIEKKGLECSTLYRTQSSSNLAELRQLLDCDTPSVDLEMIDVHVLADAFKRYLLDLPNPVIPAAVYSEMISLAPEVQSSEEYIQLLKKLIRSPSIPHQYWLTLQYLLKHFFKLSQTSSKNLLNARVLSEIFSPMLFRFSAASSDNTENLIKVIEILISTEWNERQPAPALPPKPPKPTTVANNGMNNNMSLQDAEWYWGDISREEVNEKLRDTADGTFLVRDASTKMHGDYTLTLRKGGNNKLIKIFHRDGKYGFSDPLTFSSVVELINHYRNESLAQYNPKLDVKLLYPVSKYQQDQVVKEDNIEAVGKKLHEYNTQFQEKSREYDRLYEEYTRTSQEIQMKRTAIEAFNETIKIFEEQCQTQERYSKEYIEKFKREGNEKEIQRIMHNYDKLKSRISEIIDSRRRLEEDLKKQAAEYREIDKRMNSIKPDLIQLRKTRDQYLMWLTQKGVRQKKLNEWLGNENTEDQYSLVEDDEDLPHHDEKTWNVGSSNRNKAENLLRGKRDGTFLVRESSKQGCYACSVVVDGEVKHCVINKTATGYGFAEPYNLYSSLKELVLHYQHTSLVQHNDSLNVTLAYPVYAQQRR", "assay": "PI3K lipid kinase inhibition assay (TLC or HTRF), PI3K β", "type": "biochemical", "settings": "In Vitro", "text": "(§1) Other commercial kits or systems for assaying PI3K activities are available. […] An exemplary system is PI 3-Kinase (human) HTRF™ Assay from Upstate."}, "PI3K γ": {"target": "T2, PI3K γ (Homo sapiens, UniProt P48736)", "T2 construct": "purchased Sigma", "T2 sequence (P48736 whole entry)": "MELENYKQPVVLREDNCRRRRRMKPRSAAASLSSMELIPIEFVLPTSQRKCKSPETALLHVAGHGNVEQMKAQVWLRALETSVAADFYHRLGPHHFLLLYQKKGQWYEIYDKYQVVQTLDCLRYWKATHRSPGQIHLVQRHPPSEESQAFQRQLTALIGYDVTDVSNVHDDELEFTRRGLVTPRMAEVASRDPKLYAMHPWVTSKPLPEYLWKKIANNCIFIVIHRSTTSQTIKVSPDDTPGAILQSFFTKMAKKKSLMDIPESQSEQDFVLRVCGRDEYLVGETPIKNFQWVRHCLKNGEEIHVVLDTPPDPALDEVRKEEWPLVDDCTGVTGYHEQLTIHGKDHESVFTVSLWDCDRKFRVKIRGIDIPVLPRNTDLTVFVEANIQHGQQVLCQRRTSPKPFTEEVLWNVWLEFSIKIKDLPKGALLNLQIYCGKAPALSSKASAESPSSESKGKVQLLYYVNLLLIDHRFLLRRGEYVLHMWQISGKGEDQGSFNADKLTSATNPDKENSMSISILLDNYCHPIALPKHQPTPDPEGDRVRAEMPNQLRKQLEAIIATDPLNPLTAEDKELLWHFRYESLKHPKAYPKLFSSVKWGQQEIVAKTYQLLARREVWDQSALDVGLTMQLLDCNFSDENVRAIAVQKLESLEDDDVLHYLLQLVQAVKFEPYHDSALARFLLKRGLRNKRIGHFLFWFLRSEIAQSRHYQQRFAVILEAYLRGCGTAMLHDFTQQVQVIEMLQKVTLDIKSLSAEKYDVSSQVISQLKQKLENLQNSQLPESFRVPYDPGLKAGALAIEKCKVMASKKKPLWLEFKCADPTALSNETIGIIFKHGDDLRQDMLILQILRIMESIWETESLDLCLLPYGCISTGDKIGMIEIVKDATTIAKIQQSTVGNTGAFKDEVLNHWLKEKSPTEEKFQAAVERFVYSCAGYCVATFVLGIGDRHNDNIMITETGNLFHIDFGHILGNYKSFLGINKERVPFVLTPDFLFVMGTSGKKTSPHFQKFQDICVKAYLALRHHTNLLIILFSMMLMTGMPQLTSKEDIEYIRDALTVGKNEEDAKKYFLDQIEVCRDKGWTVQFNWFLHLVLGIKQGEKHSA", "assay": "PI3K lipid kinase inhibition assay (TLC or HTRF), PI3K γ", "type": "biochemical", "settings": "In Vitro", "text": "as §1"}, "PI3K δ": {"target": "PI3K δ (Homo sapiens, UniProt O00329)", "sequence (O00329 whole entry)": "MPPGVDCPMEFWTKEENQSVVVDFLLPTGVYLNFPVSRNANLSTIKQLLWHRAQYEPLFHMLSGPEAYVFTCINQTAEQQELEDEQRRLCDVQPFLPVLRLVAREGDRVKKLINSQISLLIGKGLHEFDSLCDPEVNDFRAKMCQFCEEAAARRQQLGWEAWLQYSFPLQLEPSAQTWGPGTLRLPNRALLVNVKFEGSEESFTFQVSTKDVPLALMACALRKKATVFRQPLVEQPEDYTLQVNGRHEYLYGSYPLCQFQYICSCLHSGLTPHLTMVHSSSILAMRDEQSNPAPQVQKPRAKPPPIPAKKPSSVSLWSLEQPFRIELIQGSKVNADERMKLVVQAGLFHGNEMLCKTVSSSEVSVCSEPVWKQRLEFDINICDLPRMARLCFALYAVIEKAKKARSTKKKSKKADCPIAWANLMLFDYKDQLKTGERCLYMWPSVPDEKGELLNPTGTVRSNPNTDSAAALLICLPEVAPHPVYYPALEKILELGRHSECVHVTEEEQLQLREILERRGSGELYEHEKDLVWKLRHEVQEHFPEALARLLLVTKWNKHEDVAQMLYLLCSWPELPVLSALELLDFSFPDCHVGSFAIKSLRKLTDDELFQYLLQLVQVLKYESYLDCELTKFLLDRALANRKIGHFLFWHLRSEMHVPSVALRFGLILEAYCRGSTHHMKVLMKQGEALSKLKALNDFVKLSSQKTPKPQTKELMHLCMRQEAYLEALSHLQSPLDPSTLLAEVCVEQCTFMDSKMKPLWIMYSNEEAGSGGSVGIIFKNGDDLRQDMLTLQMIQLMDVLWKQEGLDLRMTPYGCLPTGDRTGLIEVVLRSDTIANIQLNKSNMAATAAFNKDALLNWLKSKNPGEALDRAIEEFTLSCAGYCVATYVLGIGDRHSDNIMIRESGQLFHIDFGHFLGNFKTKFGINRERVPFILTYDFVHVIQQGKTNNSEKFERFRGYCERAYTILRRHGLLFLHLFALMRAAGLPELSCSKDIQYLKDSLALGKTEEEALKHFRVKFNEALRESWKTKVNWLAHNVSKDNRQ", "sequence (P27986 whole entry partner)": "as the sequence (P27986 whole entry partner) above", "assay": "PI3K lipid kinase inhibition assay (TLC or HTRF), PI3K δ", "type": "biochemical", "design": "purchased Upstate", "settings": "In Vitro", "text": "as §1"}, "PI3K α": {"target": "T3, PI3K α (Homo sapiens, UniProt P42336)", "T3 construct": "purchased Upstate", "T3 sequence (P42336 whole entry)": "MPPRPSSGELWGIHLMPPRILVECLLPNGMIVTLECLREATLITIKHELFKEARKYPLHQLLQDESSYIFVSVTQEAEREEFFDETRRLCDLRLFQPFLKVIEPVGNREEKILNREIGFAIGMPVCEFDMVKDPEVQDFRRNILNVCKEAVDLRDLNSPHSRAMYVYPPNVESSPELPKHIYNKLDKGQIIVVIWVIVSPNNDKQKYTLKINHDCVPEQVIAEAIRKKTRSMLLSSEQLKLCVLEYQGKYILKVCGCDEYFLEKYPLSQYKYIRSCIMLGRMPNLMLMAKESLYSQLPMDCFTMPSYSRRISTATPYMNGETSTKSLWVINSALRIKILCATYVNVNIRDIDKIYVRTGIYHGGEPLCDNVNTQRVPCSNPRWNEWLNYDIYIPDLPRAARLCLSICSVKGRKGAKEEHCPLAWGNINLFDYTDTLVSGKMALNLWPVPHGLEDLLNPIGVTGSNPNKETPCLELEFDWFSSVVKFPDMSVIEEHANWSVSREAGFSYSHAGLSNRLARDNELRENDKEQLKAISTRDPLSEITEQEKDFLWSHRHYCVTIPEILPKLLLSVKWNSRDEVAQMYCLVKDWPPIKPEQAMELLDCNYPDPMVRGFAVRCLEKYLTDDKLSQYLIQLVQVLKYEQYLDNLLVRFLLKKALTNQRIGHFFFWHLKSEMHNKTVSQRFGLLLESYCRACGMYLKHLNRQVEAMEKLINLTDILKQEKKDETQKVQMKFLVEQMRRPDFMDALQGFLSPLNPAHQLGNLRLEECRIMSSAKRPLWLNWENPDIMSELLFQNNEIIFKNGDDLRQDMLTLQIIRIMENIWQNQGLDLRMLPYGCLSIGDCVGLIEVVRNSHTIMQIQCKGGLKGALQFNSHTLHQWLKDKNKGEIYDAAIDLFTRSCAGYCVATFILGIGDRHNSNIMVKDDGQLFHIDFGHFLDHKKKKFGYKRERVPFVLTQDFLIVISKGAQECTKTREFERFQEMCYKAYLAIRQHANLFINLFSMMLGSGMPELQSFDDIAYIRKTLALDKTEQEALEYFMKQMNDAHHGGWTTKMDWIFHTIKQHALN", "T3 sequence (P27986 whole entry partner)": "as the sequence (P27986 whole entry partner) above", "assay": "PI3K lipid kinase inhibition assay (TLC or HTRF), PI3K α", "type": "biochemical", "settings": "In Vitro", "text": "as §1"}, "Loucy": {"test_system": "Loucy", "assay": "T-ALL growth inhibition", "type": "cell-based, human", "settings": "Loucy ALL cells, various concentrations", "protocol": "To further explore the individual contributions of the varying PI3K isoforms on T-ALL cell growth, Loucy ALL cells were treated with doxorubicin and various PI3K inhibitors as shown in FIG. 32 at various concentrations as denoted in the figure."}},
  "data": [
    {"molecule": "CC[C@H](Nc1ncnc2[nH]cnc12)c1nc2cccc(F)c2c(=O)n1-c1ccccc1", "note": "[GS-1101, (S)-2-(1-(9H-purin-6-ylamino)propyl)-5-fluoro-3-phenylquinazolin-4(3H)-one, reference compound]", "values": [
      {"measurement": "cytotoxicity, sensitivity", "setting": "MJ", "result": "resistant"}
    ]},
    {"molecule": "Cc1cccc2cc(C(C)Nc3nc(Cl)ncc3N)n(-c3ccccc3)c(=O)c12", "note": "(stereo not drawn) [Compound 322]", "values": [
      {"measurement": "IC50", "setting": "PI3K β", "result": "> 10000", "unit": "nM"},
      {"measurement": "IC50", "setting": "PI3K γ", "result": "> 10000", "unit": "nM"},
      {"measurement": "IC50", "setting": "PI3K δ", "result": "> 10000", "unit": "nM"},
      {"measurement": "IC50", "setting": "PI3K α", "result": "> 10000", "unit": "nM"}
    ]},
    {"molecule": "COc1cccc2c1C(=O)c1c(O)c3c(c(O)c1C2=O)C[C@@](O)(C(=O)CO)C[C@@H]3O[C@H]1C[C@H](N)[C@H](O)[C@H](C)O1", "note": "[doxorubicin, reference compound]", "values": [
      {"measurement": "percent inhibition of Loucy cells with dose", "setting": "Loucy", "result": "different pattern"}
    ]}
  ]
}
